In this assay the test system is PKC mediated IL-2 production. Description: IL-2 ELISA, human primary T cell, anti CD3+CD28+. Conditions: human primary T cells stimulated with αCD3 and αCD28, 24 hours. The assay is classed as cell-based. As for the experimental part:
Compounds 1-328 were tested in a whole cell functional assay for PKC mediated IL-2 production as follows. Human primary T cell isolation and culture: Human primary T cells were prepared as follows. Whole blood was obtained from a healthy volunteer, mixed 1:1 with PBS, layered on to Ficoll Hypaque (Amersham Pharmacia Biotech, Piscataway, N.J., Catalog #17-1440-03) in 2:1 blood/PBS:ficoll ratio and centrifuged for 30 minutes at 4° C. at 1750 rpm. The cells at the serum: ficoll interface were recovered and washed twice with 5 volumes of PBS. These freshly isolated human peripheral blood mononuclear cells were cultured in Yssel's medium containing 40 U/ml IL2 in a flask pre-coated with […] αCD3 and 5 μg/ml αCD28 (Anti-Human CD3, BD Pharmingen Catalog #555336, Anti-Human CD28, Beckman Coulter Catalog #IM1376). The cells were stimulated for 3-4 days, then transferred to a fresh flask and maintained in RPMI (RPMI-1640 with L-Glutamine; Mediatech, Inc., Herndon Va., cat. #10-040-CM) with 10% FBS and 40 U/ml IL-2. The primary T-cells were then washed twice with PBS to remove the IL-2.
Primary T cell stimulation and IL2 ELISA: Human primary T cells (100,000 cells per well) were pre-incubated with or without test compound in Yssel's medium for 1 hour at 37° C. Cells were then stimulated by transferring them to round-bottom 96-well plates pre-coated with […] αCD3 and 5 μg/ml αCD28. For counter assay, cells were instead stimulated by adding 8× stock solutions of PMA and ionomycin in Yssels (for final concentrations of 0.5 ng/ml PMA and 0.1 uM ionomycin, both from Calbiochem). Cells were incubated at 37° C. for 24 hours before 100 μL supernatants were harvested for quantification of IL-2 by ELISA using Human IL-2 Duoset ELISA Kit from R and D Systems, Cat. # DY202E.
(In an ELISA, binding on a coated surface is turned into a signal by an enzyme label.)

Regarding `CC1(C)Oc2ccc(Nc3ncc(F)c(N[C@@H]4C[C@H]5CCCN5C(C)(C)C4)n3)cc2-n2nnnc21` [Compound 2, N2-(4,4-dimethyl-4H-benzo[b]tetrazolo[1,5-d][1,4]oxazin-8-yl)-5-fluoro-N4-(octahydro-5,5-dimethylindolizin-7-amine)pyrimidine-2,4-diamine], the concentration giving a half-maximal response (EC50) was less than 100 nM.

For `CC1(C)C[C@H](Nc2nc(Nc3ccc(OCCO)c(-n4cnnn4)c3)ncc2F)C[C@@H]2CCCN21` [Compound 205, 2-(4-((4-(((7R,8aS)-5,5-dimethyloctahydroindolizin-7-yl)amino)-5-fluoropyrimidin-2-yl)amino)-2-(1H-tetrazol-1-yl)phenoxy)ethan-1-ol], the EC50 (Homo sapiens, T-cell, 24 h) is less than 100 nM.

The compound `Cn1nnn(-c2cc(Nc3ncc(F)c(N[C@@H]4C[C@@H]5CCCN5C(C)(C)C4)n3)c(F)cc2OC(C)(C)CO)c1=O` [Compound 85, 1-(2-(1-hydroxy-2-methylpropan-2-yloxy)-5-(4-((7R,8aS)-octahydro-5,5-dimethylindolizin-7-ylamino)-5-fluoropyrimidin-2-ylamino)-4-fluorophenyl)-4-methyl-1H-tetrazol-5(4H)-one] yielded a concentration giving a half-maximal response (EC50) (Homo sapiens, T-cell, 24 h) of 100 to 500 nM.

Compound `Cn1nnn(-c2cc(Nc3ncc(F)c(N[C@@H]4C[C@@H]5CCCN5C(C)(C)C4)n3)c(F)cc2OC2CCOC2=O)c1=O` (stereo partly drawn) [Compound 185, 1-(5-((4-(((7R,8aS)-5,5-dimethyloctahydroindolizin-7-yl)amino)-5-fluoropyrimidin-2-yl)amino)-4-fluoro-2-((2-oxotetrahydrofuran-3-yl)oxy)phenyl)-4-methyl-1,4-dihydro-5H-tetrazol-5-one] registered a concentration giving a half-maximal response (EC50) (Homo sapiens, T-cell, 24 h) of more than 10000 nM.

With `Cn1nnn(-c2cc(Nc3ncc(F)c(N[C@@H]4C[C@@H]5CCCN5C(C)(C)C4)n3)c(F)cc2Br)c1=O` [Compound 91, 1-(5-(4-((7R,8aS)-octahydro-5,5-dimethylindolizin-7-ylamino)-5-fluoropyrimidin-2-ylamino)-2-bromo-4-fluorophenyl)-4-methyl-1H-tetrazol-5(4H)-one], the 50% effective concentration (EC50) (Homo sapiens, T-cell, 24 h) was less than 100 nM.

Turning to `Cn1nnn(-c2cc(Nc3ncc(Cl)c(N[C@@H]4C[C@@H]5CCCN5C(C)(C)C4)n3)c(F)cc2OCCO)c1=O` [Compound 237, 1-(5-((5-chloro-4-(((7R,8aS)-5,5-dimethyloctahydroindolizin-7-yl)amino)pyrimidin-2-yl)amino)-4-fluoro-2-(2-hydroxyethoxy)phenyl)-4-methyl-1,4-dihydro-5H-tetrazol-5-one], where the note is “Homo sapiens, T-cell, 24 h”, the EC50 was less than 100 nM.

With `CC1(C)C[C@H](Nc2nc(Nc3ccc(OCCO)c(-n4cnnn4)c3)ncc2Cl)C[C@@H]2CCCN21` [Compound 223, 2-(4-((5-chloro-4-(((7R,8aS)-5,5-dimethyloctahydroindolizin-7-yl)amino)pyrimidin-2-yl)amino)-2-(1H-tetrazol-1-yl)phenoxy)ethan-1-ol], the concentration giving a half-maximal response (EC50) (Homo sapiens, T-cell, 24 h) was less than 100 nM.

In turn, `CC(C)N1CCC(Oc2ccc(Nc3ncc(F)c(NC4CC5CCCN5C(C)(C)C4)n3)cc2OC(F)F)CC1` (stereo not shown) [Compound 6, (R/S, S/R, R/R, S/S)-N^2-(4-(1-isopropylpiperidin-4-yloxy)-3-(difluoromethoxy)phenyl)-5-fluoro-N^4-(octahydro-5,5-dimethylindolizin-7-yl)pyrimidine-2,4-diamine] displayed an EC50 of 100 to 500 nM.

Turning to `CC(O)COc1cc(F)c(Nc2ncc(F)c(N[C@@H]3C[C@@H]4CCCN4C(C)(C)C3)n2)cc1-n1nnn(C)c1=O` (stereo partly drawn) [Compound 200, 1-(5-((4-(((7R,8aS)-5,5-dimethyloctahydroindolizin-7-yl)amino)-5-fluoropyrimidin-2-yl)amino)-4-fluoro-2-(2-hydroxypropoxy)phenyl)-4-methyl-1,4-dihydro-5H-tetrazol-5-one], where the note is “T-cell”, the EC50 was less than 100 nM.

For `CC1(C)C[C@H](Nc2nc(Nc3cccc(C#N)c3)ncc2Cl)C[C@@H]2CCCN21` [Compound 153, 3-((5-chloro-4-(((7R,8aS)-5,5-dimethyloctahydroindolizin-7-yl)amino)pyrimidin-2-yl)amino)benzonitrile], the half-maximal effective concentration (EC50) (Homo sapiens, T-cell, 24 h) fell in the range of 100 to 500 nM.

`COCCOCCOc1ccc(Nc2ncc(F)c(N[C@@H]3C[C@@H]4CCCN4C(C)(C)C3)n2)cc1-n1cnnn1` [Compound 207, N4-((7R,8aS)-5,5-dimethyloctahydroindolizin-7-yl)-5-fluoro-N2-(4-(2-(2-methoxyethoxy)ethoxy)-3-(1H-tetrazol-1-yl)phenyl)pyrimidine-2,4-diamine]: the 50% effective concentration (EC50) (Homo sapiens, T-cell, 24 h) is less than 100 nM.

For `Cn1nnn(-c2cc(Nc3ncc(F)c(N[C@@H]4C[C@@H]5CCCN5C(C)(C)C4)n3)c(F)cc2OC[C@H](O)CO)c1=O` [Compound 188, 1-(2-((R)-2,3-dihydroxypropoxy)-5-((4-(((7R,8aS)-5,5-dimethyloctahydroindolizin-7-yl)amino)-5-fluoropyrimidin-2-yl)amino)-4-fluorophenyl)-4-methyl-1,4-dihydro-5H-tetrazol-5-one], the EC50 (Homo sapiens, T-cell, 24 h) is 500 to 1000 nM.

In turn, `Cc1nnnn1-c1ccc(F)c(Nc2ncc(F)c(N[C@@H]3C[C@@H]4CCCN4C(C)(C)C3)n2)c1` [Compound 142, N4-((7R,8aS)-5,5-dimethyloctahydroindolizin-7-yl)-5-fluoro-N2-(2-fluoro-5-(5-methyl-1H-tetrazol-1-yl)phenyl)pyrimidine-2,4-diamine] had an EC50 (Homo sapiens, T-cell, 24 h) of less than 100 nM.

Turning to `Cn1nnn(-c2cc(Nc3ncc(F)c(N[C@@H]4C[C@@H]5CC(F)(F)CN5C(C)(C)C4)n3)c(F)cc2C2CC2)c1=O` [Compound 45, 1-(5-(4-((7R,8aR)-2,2-difluoro-octahydro-5,5-dimethylindolizin-7-ylamino)-5-fluoropyrimidin-2-ylamino)-2-cyclopropyl-4-fluorophenyl)-4-methyl-1H-tetrazol-5(4H)-one], the EC50 (Homo sapiens, T-cell, 24 h) lay in the range of 1000 to 10000 nM.

In the case of `CC1(C)Oc2ccc(Nc3ncc(F)c(N[C@H]4C[C@H]5CCCN5C(C)(C)C4)n3)cc2-n2nnnc21` [Compound 102, N2-(4,4-dimethyl-4H-benzo[b]tetrazolo[1,5-d][1,4]oxazin-8-yl)-N4-((7S,8aR)-5,5-dimethyloctahydroindolizin-7-yl)-5-fluoropyrimidine-2,4-diamine], the 50% effective concentration (EC50) (Homo sapiens, T-cell, 24 h) was in the range of 100 to 500 nM.

Where the note is “Homo sapiens, T-cell, 24 h”, `COCCOCCOc1ccc(Nc2ncc(F)c(N[C@@H]3C[C@@H]4CCCN4C(C)(C)C3)n2)cc1C#N` [Compound 190, 5-((4-(((7R,8aS)-5,5-dimethyloctahydroindolizin-7-yl)amino)-5-fluoropyrimidin-2-yl)amino)-2-(2-(2-methoxyethoxy)ethoxy)benzonitrile] yielded an EC50 of 100 to 500 nM.

On to `CC1(C)C[C@H](Nc2nc(Nc3ccc(N4CCC(O)CC4)c(C#N)c3)ncc2F)C[C@@H]2CCCN21` [Compound 107, 5-((4-(((7R,8aS)-5,5-dimethyloctahydroindolizin-7-yl)amino)-5-fluoropyrimidin-2-yl)amino)-2-(4-hydroxypiperidin-1-yl)benzonitrile], for which the 50% effective concentration (EC50) (Homo sapiens, T-cell, 24 h) lay in the range of 100 to 500 nM.

Under “Homo sapiens, T-cell, 24 h”, `COc1ccc(Nc2ncc(F)c(N[C@@H]3C[C@@H]4CCCN4C(C)(C)C3)n2)cc1-n1nnnc1OC1COC1` [Compound 284, 5-fluoro-N4-((7R,8aS)-octahydro-5,5-dimethylindolizin-7-yl)-N2-(4-methoxy-3-(5-(oxetan-3-yloxy)-1H-tetrazol-1-yl)phenyl)pyrimidine-2,4-diamine] registered an EC50 of less than 100 nM.

`Cn1nc2n(c1=O)-c1cc(Nc3ncc(F)c(N[C@@H]4C[C@@H]5CCCN5C(C)(C)C4)n3)ccc1OC21COC1` [Compound 293, 5-fluoro-N2-(1H-2,4-dihydron-spiro(2H-1,4-benzoxazine-4,3′-[3H]oxetan)-2-methyl-[1,2,4]triazolo[3,4-c][1,4]benzoxazin-1-one-8-yl)-N4-((7R,8aS)-octahydro-5,5-dimethylindolizin-7-yl)pyrimidine-2,4-diamine] registered an EC50 (Homo sapiens, T-cell, 24 h) of 100 to 500 nM.

`COc1cc(-n2nnnc2C)c(F)c(Nc2ncc(F)c(N[C@@H]3C[C@@H]4CCCN4C(C)(C)C3)n2)c1F` [Compound 243, 5-fluoro-N2-(2,6-difluoro-3-methoxy-5-(5-methyl-1H-tetrazol-1-yl)phenyl)-N4-((7R,8aS)-octahydro-5,5-dimethylindolizin-7-yl)pyrimidine-2,4-diamine] gave a half-maximal effective concentration (EC50) (Homo sapiens, T-cell, 24 h) of 500 to 1000 nM.

The compound `CC1(C)C[C@H](Nc2nc(Nc3cccc(-n4nnn(C5COC5)c4=O)c3)ncc2F)C[C@@H]2CCCN21` [Compound 265, 1-(3-(4-((7R,8aS)-octahydro-5,5-dimethylindolizin-7-ylamino)-5-fluoropyrimidin-2-ylamino)phenyl)-4-(oxetan-3-yl)-1H-tetrazol-5(4H)-one] returned a 50% effective concentration (EC50) (Homo sapiens, T-cell, 24 h) of 100 to 500 nM.

`CC1(C)Oc2ccc(Nc3ncc(F)c(N[C@@H]4C[C@@H]5CCCN5C(C)(C)C4)n3)cc2-n2c1nn(CCO)c2=O` [Compound 268, 5-fluoro-N2-(1H-2,4-dihydron-2-(2-hydroxyethyl)-4,4-dimethyl-[1,2,4]triazolo[3,4-c][1,4]benzoxazin-1-one-8-yl)-N4-((7R,8aS)-octahydro-5,5-dimethylindolizin-7-yl)pyrimidine-2,4-diamine] registered a concentration for a half-maximal effect (EC50) (Homo sapiens, T-cell, 24 h) of 1000 to 10000 nM.

Usually EC50 stands for the concentration giving half of the maximal effect. A lower EC50 goes with an effect from little substance.
